Experiments:
[1] = tested on: Penicillium discolor; assay: Penicillium discolor rot on wounded apples cv Gala; type: in vivo; details: for Efficacy (%): rot surface area vs untreated control, phosphite 16 mM, natamycin 100 ppm
Experimental: Tested fruit: apples cv Gala from organic origin/SKAL certified. SKAL is a semi-governmental Dutch organization that controls organic production in the Netherlands. Wounds of the apples were checked at day 3. All phosphite concentrations were tested at a concentration of 16 mM of phosphonate. Natamycin (95%, Freda) solo and in combination was tested at a concentration of 100 ppm. […] Used pathogen: Penicillium discolor spore-suspension containing 4*10E6 spores/ml. Application: The fruit peel of the apple was damaged with a cork borer, ø4 mm and depth ˜0.5 cm into the fruit, with 2 wounds per apple. 40 microliter of a freshly prepared spore suspension of P. discolor was applied by pipette onto each wound. Subsequently, the spore-suspension was allowed to air-dry for 4 hours. Then, 50 microliter of a treatment as presented in the list above was applied by pipette to each wound. All fruits were kept at room temperature (20° C.). Wounds of the apples were checked after 4, 7 and 9 days of incubation. The efficacy is calculated by measuring the surface area (square mm) of the rot on the apples, and compared to the untreated control (see Table 4). Replicates: All treatments for the apple experiment were performed on six individual apples with two wounds each resulting in 12 wounds per treatment.

[2] = tested on: Plasmopara viticola; assay: Downy mildew on grapevine plants in greenhouse, phosphites and DITHANE Neotec; type: in vivo; details: for Incidence: 21 days after the second treatment application, phosphite 1.50 l of 2 M solution/100 l, DITHANE Neotec 0.05 kg/100 liter water
Experimental: The trial was conducted with young plants of grapevine cultivar MERLOT in a greenhouse. Treatments were applied twice, once when 3 to 4 leaves were unfolded and the second application 10 days later. Each treatment had 4 plots as replications. The experimental set up was completely randomized and each plot had 3 plants. Inoculation of the plants with the pathogen Plasmopara viticola was performed 4 days after the second application. The suspension of the spores in water was prepared at the concentration of 20,000 to 40,000 spores/ml. All foliage ware inoculated. The different phosphites were applied at the same molar concentration of phosphite. With the high phosphite treatments, a concentration of 1.50 1 of a 2 M solution/100 1 was used and with the low phosphite treatment a concentration of 0.75 1 of a 2 M solution/100 1. […] An assessment on incidence and severity was performed 21 and 28 days after the second application. Efficacy was calculated for severity in comparison to untreated control infected. Similar to Example 5, with the following amendments: […] One measurement was performed at 21 days after the second application.

[3] = tested on: black sigatoka; assay: Black sigatoka on banana plants, single leaf test, leaf 3 curative, Bravo 72 SC; type: in vivo; details: for Area infected (%) / Efficacy: 16 DAA, leaf 3 curative, Bravo 72 SC 0.875 liter/ha, phosphites 3 L/ha; for Efficacy: vs untreated control
Experimental: A single leaf test was established in a research station located in the community of “Anita Grande,” county of Jimenez, province of Limon, Costa Rica (latitude 10°15′14.15″N, longitude 83°44′20.29″W).
Every treatment was established in individual plants. Treatments were applied to leaf number 1 to determine their effect as preventive. Leaf position is counted from top to bottom, whereby leaf number 1 is closest to the unfolded leaf. Treatments were distributed systematically to facilitate their location in the field.
Product applications were done in an area of 10×10 cm, with a special equipment designed to simulate aerial applications. Application was done at 35 pound-force per square inch. Since weather conditions were highly conducive for disease development, and inoculum density was very high, no artificial inoculation was done. All treatments were applied to the same position on the leaf to minimize experimental error. All treatments were applied at the equivalent volume of 25 L ha^−1, as it is done commercially. A total of 3 sprays were applied, application A at Day 0, application B at 7 days after application A (DAA), and application C at day 13 DAA. VOLLEY® 88 OL was sprayed at 5.525 L/ha and the different phosphites were applied at the same PO3 concentration of 2 mol/l and were sprayed at 3 liter/ha.
For the evaluation of the efficacy, the diseased area that was affected in the 10×10 cm leaf area was recorded. Evaluations were done 23, 30 and 36 DAA. Efficacy was calculated by comparing the treatments against the untreated control.
Similar to Example 9, with the following differences: Treatments and measurements were applied to leaf number 3, to determine their effect as curative, and one measurement was performed at 8 days after application A (DAA).
Similar to Example 10, with the following differences: Bravo 72 SC (chlorothalonil; Syngenta) was applied at 0.875 liter/ha instead of DITHANE® 60 SC and the phosphites were spayed at a rate of 3 L/ha. One measurement was done at 16 DAA.

[4] = tested on: Plasmopara viticola; assay: Downy mildew on grapevine plants in greenhouse, phosphites and REVUS; type: in vivo; details: conclusion from Table 5
Experimental: The trial was conducted with young plants of grapevine cultivar MERLOT in a greenhouse. […] Treatments were applied twice, once when 3 to 4 leaves were unfolded and the second application 10 days later. […] Inoculation of the plants with the pathogen Plasmopara viticola was performed 4 days after the second application. The suspension of the spores in water was prepared at the concentration of 20,000 to 40,000 spores/ml. All foliage ware inoculated. The different phosphites were applied at the same molar concentration of phosphite. With the high phosphite treatments, a concentration of 1.50 1 of a 2 M solution/100 1 was used and with the low phosphite treatment a concentration of 0.75 1 of a 2 M solution/100 1. […] An assessment on incidence and severity was performed 21 and 28 days after the second application. Efficacy was calculated for severity in comparison to untreated control infected.

[5] = tested on: grapevine plants; assay: Phytotoxicity on grapevine plants; parameters: species or system grapevine cultivar MERLOT; details: in vivo
Experimental: Treatments were applied twice, once when 3 to 4 leaves were unfolded and the second application 10 days later. […] The experimental set up was completely randomized and each plot had 3 plants. Inoculation of the plants with the pathogen Plasmopara viticola was performed 4 days after the second application. The suspension of the spores in water was prepared at the concentration of 20,000 to 40,000 spores/ml. All foliage ware inoculated. The different phosphites were applied at the same molar concentration of phosphite. With the high phosphite treatments, a concentration of 1.50 1 of a 2 M solution/100 1 was used and with the low phosphite treatment a concentration of 0.75 1 of a 2 M solution/100 1. REVUS® was used with a standard concentration of 0.015 liter/100 liter. An assessment on incidence and severity was performed 21 and 28 days after the second application. Efficacy was calculated for severity in comparison to untreated control infected.

Row | Compound | Efficacy (%) ([1]; Day 4) | Efficacy (%) ([1]; Day 7) | Efficacy (%) ([1]; Day 9) | Incidence [2] | Area infected (%) [3] | Efficacy [3] | Increase of the fungal efficacy of natamycin compared with other phosphite salts ([1]; equimolar phosphite concentrations, days 4, 7, 9) | Increase of the fungal efficacy of REVUS compared with other phosphite salts [4] | Increase of the fungal efficacy of DITHANE Neotec compared with other phosphite salts ([2]; conclusion from Table 6) | Increase of the fungal efficacy of Bravo 72 SC compared with other phosphite salts ([3]; conclusion from Table 11) | Phytotox (%) [5]
1 | O=[PH]([O-])[O-].[K+].[K+] [Treatment K2HPO3] | 59% | 27% | 22% | 5.0 | 68.0% | 4.2 | – | – | – | – | –
2 | disodium hydrogen phosphite [Na2HPO3] | 88% | 74% | 64% | 10.0 | 68.0% | 4.2 | increases the fungal efficacy of natamycin the best at all time points | increases the fungal efficacy of REVUS® the best | increases the fungal efficacy of DITHANE® Neotec the best | increases the fungal efficacy of Bravo 72 SC the best | 0%
3 | N.N.O=[PH](O)O [(NH4)2HPO3] | 71% | 60% | 55% | – | 51.0% | 28.2 | – | – | – | – | –
